The values that follow come from article PMC10133546, “Simultaneous determination of multiple components in rat plasma by UHPLC-sMRM for pharmacokinetic studies after oral administration of Qingjin Yiqi Granules” (Frontiers in Pharmacology, 2023).

Series [1] can be described thus: Stability of analytes in rat plasma (auto-sampler, freeze-thaw, room temperature, long-term). Particulars: for Autosampler for 24 h Accuracy (%): autosampler 24 h; for Room temperature for 24 h Accuracy (%): room temperature 24 h; for Freeze thaw cycles Accuracy (%): three freeze-thaw cycles.
Series [2] can be described thus: Stability of the working solution (4°C for 1 month). The series is classed as physicochemical.

Consider `C[C@@H]1O[C@@H](Oc2c(-c3ccc(O)c(O)c3)oc3cc(O)cc(O)c3c2=O)[C@H](O)[C@H](O)[C@H]1O` [quercitrin], for which the “Autosampler for 24 h Accuracy (%)” value in series [1] (1.56 ng/mL) stood at 95.2%; in series [1] (12.5 ng/mL) it was 94.7%; in series [1] (100 ng/mL), 98.3%; in series [1] (500 ng/mL) it was 108.0%. Besides, the “Room temperature for 24 h Accuracy (%)” value in series [1] (1.56 ng/mL) was 85.2%; in series [1] (12.5 ng/mL), 87.1%; in series [1] (100 ng/mL) it was 99.6%; in series [1] (500 ng/mL) it was 98.0%. For the same compound, the “Freeze thaw cycles Accuracy (%)” value in series [1] (1.56 ng/mL) came to 86.2%; in series [1] (12.5 ng/mL) it was 90.0%; in series [1] (100 ng/mL), 100.0%; in series [1] (500 ng/mL), 89.3%. For the same compound, the “−80°C for 1month Accuracy (%)” value in series [1] (1.56 ng/mL, −80°C 1 month) came to 86.7%; in series [1] (12.5 ng/mL, −80°C 1 month), 97.1%; in series [1] (100 ng/mL, −80°C 1 month), 95.6%; in series [1] (500 ng/mL, −80°C 1 month), 96.0%. Also, the “Working solution Accuracy (%)” value in series [2] (1.56 ng/mL) is 92.6%; in series [2] (100 ng/mL), 90.4%; in series [2] (500 ng/mL) it was 99.1%.
On to `COc1ccc(-c2oc3c(CC=C(C)C)c(O[C@@H]4O[C@H](CO)[C@@H](O)[C@H](O)[C@H]4O)cc(O)c3c(=O)c2O[C@@H]2O[C@@H](C)[C@H](O)[C@@H](O)[C@H]2O)cc1` [icariin (IS)], for which the “Working solution Accuracy (%)” value in series [2] (concentration 100 ng/mL) amounted to 94.8%.
For `O.Oc1cc(O)c2c(c1)O[C@H](c1ccc(O)c(O)c1)[C@@H](O)C2` [catechin], the “Working solution Accuracy (%)” value is 91.6% in series [2] (12.5 ng/mL), 106.0% in series [2] (50 ng/mL), 97.4% in series [2] (100 ng/mL) and 100.0% in series [2] (500 ng/mL).
Turning to `COc1c2c(cc3oc(CO)cc(=O)c13)O[C@H](C(C)(C)O)C2` [cimifugin], the “Autosampler for 24 h Accuracy (%)” value was determined as 102.0% in series [1] (1.56 ng/mL), 91.1% in series [1] (12.5 ng/mL), 100.0% in series [1] (100 ng/mL) and 102.0% in series [1] (500 ng/mL). The “Room temperature for 24 h Accuracy (%)” value in series [1] (1.56 ng/mL) is 92.4%; in series [1] (100 ng/mL), 98.0%; in series [1] (500 ng/mL), 98.6%. For the same compound, the “Freeze thaw cycles Accuracy (%)” value is listed as 84.5% in series [1] (1.56 ng/mL), 92.0% in series [1] (12.5 ng/mL), 95.7% in series [1] (100 ng/mL) and 93.2% in series [1] (500 ng/mL). For the same compound, the “−80°C for 1month Accuracy (%)” value in series [1] (1.56 ng/mL, −80°C 1 month) was determined as 83.9%; in series [1] (12.5 ng/mL, −80°C 1 month), 96.3%; in series [1] (100 ng/mL, −80°C 1 month), 99.6%; in series [1] (500 ng/mL, −80°C 1 month) it was 95.2%. Moreover, the “Working solution Accuracy (%)” value in series [2] (1.56 ng/mL) worked out at 90.5%; in series [2] (12.5 ng/mL) it was 100.0%; in series [2] (500 ng/mL) it was 86.7%.
Take `CC(=O)O[C@H]1[C@H](O[C@H]2CC[C@]34C[C@]35CC[C@]3(C)[C@@H]([C@@]6(C)CC[C@@H](C(C)(C)O)O6)[C@@H](O)C[C@@]3(C)[C@@H]5C[C@H](O[C@@H]3O[C@H](CO)[C@@H](O)[C@H](O)[C@H]3O)[C@H]4C2(C)C)OC[C@@H](O)[C@@H]1O` [astragaloside II(IS)]: the “Autosampler for 24 h Accuracy (%)” value in series [1] (concentration 100 ng/mL) was determined as 105.0%. Moreover, the “−80°C for 1month Accuracy (%)” value in series [1] (−80°C for 1 month, concentration 100 ng/mL) is on record as 115.0%. In addition, the “Working solution Accuracy (%)” value in series [2] (concentration 100 ng/mL) is recorded as 96.7%.
Turning to `C[C@@]12C[C@@]3(O)O[C@@H](O1)[C@]1(COC(=O)c4ccccc4)[C@H]3C[C@@]12O[C@@H]1O[C@H](CO)[C@@H](O)[C@H](O)[C@H]1O` [paeoniflorin], the “Autosampler for 24 h Accuracy (%)” value in series [1] (12.5 ng/mL) is recorded as 86.8%; in series [1] (50 ng/mL), 97.6%; in series [1] (100 ng/mL) it was 111.0%; in series [1] (500 ng/mL), 92.0%. For the same compound, the “Room temperature for 24 h Accuracy (%)” value was found to be 106.0% in series [1] (12.5 ng/mL), 106.0% in series [1] (50 ng/mL), 86.8% in series [1] (100 ng/mL) and 92.2% in series [1] (500 ng/mL). In addition, the “Freeze thaw cycles Accuracy (%)” value in series [1] (12.5 ng/mL) is on record as 97.6%; in series [1] (50 ng/mL), 94.1%; in series [1] (100 ng/mL) it was 93.4%; in series [1] (500 ng/mL), 93.1%. The “−80°C for 1month Accuracy (%)” value in series [1] (12.5 ng/mL, −80°C 1 month) was found to be 97.6%; in series [1] (50 ng/mL, −80°C 1 month), 96.4%; in series [1] (100 ng/mL, −80°C 1 month), 95.2%; in series [1] (500 ng/mL, −80°C 1 month), 95.3%. Besides, the “Working solution Accuracy (%)” value in series [2] (12.5 ng/mL) was 106.0%; in series [2] (500 ng/mL), 93.2%.
As for `COc1ccc(-c2coc3cc(O[C@@H]4O[C@H](CO)[C@@H](O)[C@H](O)[C@H]4O)ccc3c2=O)cc1` [ononin], the “Room temperature for 24 h Accuracy (%)” value was 98.6% in series [1] (1.56 ng/mL), 109.0% in series [1] (12.5 ng/mL), 86.9% in series [1] (100 ng/mL) and 93.2% in series [1] (500 ng/mL). For the same compound, the “Freeze thaw cycles Accuracy (%)” value came out at 95.6% in series [1] (1.56 ng/mL), 108.0% in series [1] (12.5 ng/mL) and 99.0% in series [1] (100 ng/mL). In addition, the “−80°C for 1month Accuracy (%)” value in series [1] (1.56 ng/mL, −80°C 1 month) is 111.0%; in series [1] (12.5 ng/mL, −80°C 1 month) it was 92.2%; in series [1] (500 ng/mL, −80°C 1 month), 98.2%. The “Autosampler for 24 h Accuracy (%)” value is given as 95.3% in series [1] (12.5 ng/mL), 94.4% in series [1] (100 ng/mL) and 104.0% in series [1] (500 ng/mL). For the same compound, the “Working solution Accuracy (%)” value in series [2] (1.56 ng/mL) is given as 84.3%; in series [2] (12.5 ng/mL), 87.5%; in series [2] (100 ng/mL), 104.0%; in series [2] (500 ng/mL) it was 91.3%.
For the compound `C[C@]1(OC(=O)/C=C/c2ccccc2)C[C@@H](O)[C@]2(O)C=CO[C@@H](O[C@@H]3O[C@H](CO)[C@@H](O)[C@H](O)[C@H]3O)[C@@H]21` [harpagoside], the “Autosampler for 24 h Accuracy (%)” value worked out at 105.0% in series [1] (1.56 ng/mL), 101.0% in series [1] (12.5 ng/mL) and 93.8% in series [1] (100 ng/mL). Further, the “Room temperature for 24 h Accuracy (%)” value in series [1] (1.56 ng/mL) turned out to be 95.0%; in series [1] (12.5 ng/mL), 108.0%; in series [1] (100 ng/mL) it was 100.0%; in series [1] (500 ng/mL) it was 95.7%. Moreover, the “Freeze thaw cycles Accuracy (%)” value in series [1] (1.56 ng/mL) is 91.5%; in series [1] (12.5 ng/mL) it was 98.1%; in series [1] (100 ng/mL), 93.2%; in series [1] (500 ng/mL), 95.1%. For the same compound, the “−80°C for 1month Accuracy (%)” value in series [1] (1.56 ng/mL, −80°C 1 month) came to 86.6%. The “Working solution Accuracy (%)” value was found to be 83.8% in series [2] (1.56 ng/mL), 105.0% in series [2] (12.5 ng/mL) and 88.5% in series [2] (500 ng/mL).
In the case of `O=c1cc(-c2ccccc2)oc2cc(O)c(O)c(O)c12` [baicalein], the “Autosampler for 24 h Accuracy (%)” value came out at 97.0% in series [1] (12.5 ng/mL), 92.3% in series [1] (50 ng/mL), 92.4% in series [1] (100 ng/mL) and 93.2% in series [1] (500 ng/mL). The figures for the “Room temperature for 24 h Accuracy (%)” value in series [1] (12.5 ng/mL), in series [1] (50 ng/mL) and in series [1] (500 ng/mL) were 91.4%, 85.5% and 91.0%, respectively. The entries for the “Freeze thaw cycles Accuracy (%)” value in series [1] (12.5 ng/mL), in series [1] (100 ng/mL) and in series [1] (500 ng/mL) were 97.4%, 98.2% and 94.0%, respectively. In addition, the “−80°C for 1month Accuracy (%)” value is reported as 99.7% in series [1] (12.5 ng/mL, −80°C 1 month); 90.6% in series [1] (50 ng/mL, −80°C 1 month); 95.5% in series [1] (100 ng/mL, −80°C 1 month); 104.0% in series [1] (500 ng/mL, −80°C 1 month).
